Results as given in paper PMC6264193, “Synthesis and Biological Evaluation of Novel ^99mTc-Labelled Bisphosphonates as Superior Bone Imaging Agents” (Molecules, 2011).

Key:
bone resorption = tested on: bone resorption; set-up: method as in PMID 18593621; conditions: preclinical models of bone resorption; cited from earlier work

SMILES: O=P(O)(O)C(O)(Cn1ccnc1)P(=O)(O)O [ZL, 1-hydroxy-2-(imidazol-1-yl)-ethylidene-1,1-bisphosphonic acid]
- potency relative to clodronate and pamidronate (bone resorption): at least 100 times
- potency relative to etidronate (bone resorption): at least 1,000 times

SMILES: Cc1nccn1CCCC(O)(P(=O)(O)O)P(=O)(O)O [Compound 4b, 1-Hydroxy-4-(2-methyl-1H-imidazol-1-yl)butane-1,1-diyldiphosphonic acid]
- melting point: 142 to 145 °C

SMILES: Cc1nccn1CCCCC(O)(P(=O)(O)O)P(=O)(O)O [Compound 4c, 1-Hydroxy-5-(2-methyl-1H-imidazol-1-yl)pentane-1,1-diyldiphosphonic acid]
- melting point: 212 to 215 °C

SMILES: Cc1nccn1CCC(O)(P(=O)(O)O)P(=O)(O)O [Compound 4a, 1-Hydroxy-3-(2-methyl-1H-imidazol-1-yl)propane-1,1-diyldiphosphonic acid]
- melting point: 183 to 186 °C
